In the NIST ThermoML archive (doi:10.1021/je301029j):
± gives the expanded uncertainty stated by the source.

Columns and labels:
[1] = Molar enthalpy of transition or fusion; conditions: Crystal; DSC
[2] = Crystal; DTA

- Molar enthalpy of transition or fusion [1]: 8.18 ± 0.177 kcal/mol
- Normal melting temperature [2]: 114.61 ± 0.63 °C
SMILES: O=P(CCCO)(CCCO)CCCO [tris(3-hydroxypropyl)phosphine oxide]
